Data set [1] deals with VEEV TC-83. In words: microbe, parasite or virus in culture. Format: cell-based. Particulars: Venezuelan equine encephalitis virus, Vero 76.
For data set [2], the system named is VEEV TC-83. In words: microbe, parasite or virus in culture. Type of data set: cell-based. To be noted: Venezuelan equine encephalitis virus, Vero 76, read-out: IC50 against TC-83 1º.
Data set [3] has as its system VEEV TC-83. In words: microbe, parasite or virus in culture. To be noted: Venezuelan equine encephalitis virus. Format: cell-based.
The next data set deals with VEEV V3526. Put plainly: microbe, parasite or virus in culture. Format: cell-based. To be noted: Venezuelan equine encephalitis virus.
In data set [4] the test system is VEEV TrD. Put plainly: microbe, parasite or virus in culture. Format: cell-based. To be noted: Venezuelan equine encephalitis virus.
A further data set has as its system EEEV strain FL91. In words: microbe, parasite or virus in culture. Type of data set: cell-based, Eastern equine encephalitis virus.
The test system of a further data set is WEEV (VR-70). Put plainly: microbe, parasite or virus in culture. To be noted: Western equine encephalitis virus, Vero, 72 h, read-out: Antiviral Activity (IC50), WEEV. Format: cell-based.
For a further data set, the system named is CHIKV. Put plainly: microbe, parasite or virus in culture. Type of data set: cell-based, Chikungunya virus.
Another data set concerns Ebola virus (Zaire)-GFP. Put plainly: microbe, parasite or virus in culture. Format: cell-based.
In another data set the test system is RSV (strain Long). Put plainly: microbe, parasite or virus in culture. Type of data set: cell-based, human respiratory syncytial virus.
The subject of another data set is VACV-LREV. In words: microbe, parasite or virus in culture. Format: cell-based, vaccinia virus (western reserve).
Another data set concerns VSV-EGFP. In words: microbe, parasite or virus in culture. Type of data set: cell-based, vesicular stomatitis virus.
For data set [5], the system named is VEEV TC-83. Type of data set: cell-based, Venezuelan equine encephalitis virus.
Data set [6] relates to VEEV TrD. Type of data set: cell-based, Venezuelan equine encephalitis virus.
Data set [7] has as its system VEEV TC-83. Type of data set: cell-based, Venezuelan equine encephalitis virus. This is another data set of the same source.
The subject of another data set is VEEV TC-83 RNA. Format: cell-based, Venezuelan equine encephalitis virus.
The next data set concerns VEEV TC-83 proteins. Type of data set: cell-based, Venezuelan equine encephalitis virus.
Data set [8] has as its system VEEV TC-83. Format: cell-based, Venezuelan equine encephalitis virus. This is another data set of the same source.
For data set [9] the following is noted: mouse, in vivo.
The conditions of data set [10]: 16 hr.
The conditions of data set [11]: microsomes.
Another data set is described as follows: in vivo. Particulars: mouse, ip.
Data set [12] in a line: in vitro. To be noted: African green monkey.
Data set [13] is described as follows: in vitro. To be noted: mouse, plasma.
Data set [14] can be described thus: in vitro. Particulars: microsomes.
The nature of data set [15]: in vitro. To be noted: mouse; for fraction unbound: plasma.
The nature of data set [16]: in vitro. Particulars: dog, MDCK-MDR1.
In another data set the test system is MDR1. Put plainly: in vitro. Particulars: dog, MDCK-MDR1.
The nature of data set [17]: in vitro. To be noted: PAMPA.
In data set [18] the test system is VEEV TC-83. Particulars: mouse, in vivo; cited from earlier work.
Setting [19] is: Vero 76, read-out: IC50 against TC-83 2º.

We go through seven compounds from publication PMC4072787 (PLoS Pathogens, 2014).

Entries after “also recorded” stand apart in the source; their conditions may differ. Where two headings read alike, the source gives them in different places.

`CCN1CCN(Cc2nc3ccc([N+](=O)[O-])cc3c(=O)n2-c2ccccc2F)CC1` [CID15997213]: the inhibition at 20 µM in the data set with VEEV TC-83 [1] came out at 73%. Also, the IC50 was found to be 1.91 µM in the data set on VEEV TC-83 [2]; 1.3 µM in the data set on VEEV TC-83 [3] (setting [19]); 0.84 µM in the data set with VEEV TC-83 [3] (read-out: IC50, VEEV TC-83); 0.67 µM with VEEV V3526 (read-out: Antiviral Activity (IC50), VEEV V3526); 0.32 µM in the data set on VEEV V3526 (read-out: IC50, V3526); 1.01 µM in the data set on VEEV V3526 (read-out: IC50 against V3526). For the same compound, the IC50 in the data set with VEEV TrD [4] (N2a, read-out: Antiviral Activity (IC50), VEEV TrD) is 0.48 µM; in the data set with VEEV TrD [4] (Vero 76, read-out: Antiviral Activity (IC50), VEEV TrD), 0.38 µM; in the data set with VEEV TrD [4] (read-out: IC50, VEEV TrD), 0.36 to 0.48 µM; with EEEV strain FL91 (Eastern equine encephalitis virus, Vero, 40 h, read-out: Antiviral Activity (IC50), EEEV), above 20 µM; with WEEV (VR-70), 10 µM; with CHIKV (Chikungunya virus, 72 h, read-out: Antiviral Activity (IC50), CHIKV), above 50 µM. For the same compound, the IC50 is above 10 µM in the data set with Ebola virus (Zaire)-GFP (Zaire ebolavirus, HeLa, 24 h, read-out: Antiviral Activity (IC50), Ebola virus (Zaire)-GFP); above 50 µM with RSV (strain Long) (human respiratory syncytial virus, HEp-2, 120 h, read-out: Antiviral Activity (IC50), RSV); above 20 µM in the data set on VACV-LREV (Vaccinia virus Western Reserve, A549, 18 h, read-out: Antiviral Activity (IC50), VACV-LREV); above 20 µM with VSV-EGFP (Vesicular stomatitis virus, A549, 18 h, read-out: Antiviral Activity (IC50), VSV-EGFP). Besides, in the data set with EEEV strain FL91, the “Antiviral Activity (IC50), EEEV” value is “no activity”. Also, in the data set on CHIKV, the “Antiviral Activity (IC50), CHIKV” value is recorded as “not inhibited”. Besides, the “Antiviral Activity (IC50), Ebola virus (Zaire)-GFP” value with Ebola virus (Zaire)-GFP was “No antiviral activity”. Also, the “Antiviral Activity (IC50), RSV” value in the data set on RSV (strain Long) is listed as “No antiviral activity”. In addition, in the data set with VACV-LREV, the “Antiviral Activity (IC50), VACV-LREV” value is “No antiviral activity”. In addition, the “Antiviral Activity (IC50), VSV-EGFP” value in the data set on VSV-EGFP is reported as “No antiviral activity”. The “Progeny virus in titer reduction assay” value in the data set with VEEV TC-83 [5] and with VEEV TrD [6] was “No progeny virus was detected” each time. Further, the Plaque formation entry in the data set with VEEV TC-83 [7] is listed as “no visible plaques”. The “Reduction in viral RNA levels as compared to the control” value in the data set with VEEV TC-83 RNA is > 8,000 fold. The “Viral protein level (western blot)” value in the data set on VEEV TC-83 proteins is “dramatic decrease in viral protein level; also recorded: not able to detect viral proteins”. Further, the “Virus production still occurring, of the maximum” value in the data set on VEEV TC-83 [8] stood at 90%. In data set [9], the “Acute toxicity, clinical signs” value is “no acute toxicity”. For the same compound, the “Toxicity (body weight loss, adverse effects)” value in [9] was “No apparent toxicity”. In addition, the Aqueous solubility in [10] is listed as above 100 µM. Besides, the microsomal stability result in [11] is on record as “good”. The MTD in “in vivo” was at least 800 mg/kg. Also, in the data set “in vitro [12]”, the CC50 was above 25 µM. In addition, the solubility in the data set “physchem” was above 100 µM. The compound also gave a half-life in the data set “in vitro [13]” above 4 h. In the data set “in vitro [14]”, the microsomal CLint was 31.4 µL/min/mg. In “in vitro [15]”, this compound had a recovery of 89%. The figures for the free fraction (fraction unbound) in the data set “in vitro [15]” (Mean plasma fraction bound), in “in vitro [15]” (Mean plasma fraction unbound) and in the data set “in vitro [15]” (protein binding) were 0.324, 0.324 and 0.68, respectively. Also, the Papp A→B in “in vitro [16]” came out at 7.2 ×10⁻⁶ cm/s. This compound also returned a Papp B→A in “in vitro [16]” of 38.5 ×10⁻⁶ cm/s. Moreover, in the data set with MDR1, the efflux ratio came to 5.3. Also, the Papp in the data set “in vitro [17]” was found to be 42 ×10⁻⁶ cm/s.

With `O=C(Cc1cccs1)Nc1nc2c(s1)CCCC2` [compound 847035], at 20 µM the inhibition in the data set with VEEV TC-83 [1] was 27.8%. The IC50 in the data set with VEEV TC-83 [2] was found to be 6.38 µM; in the data set with VEEV TC-83 [3] (setting [19]) it was 4.71 µM; in the data set with VEEV V3526 (read-out: IC50 against V3526), 7.09 µM. Besides, the CC50 in “in vitro [12]” was above 25 µM.

In the data set with VEEV TC-83 [1], `Clc1ccc2nnnc(-c3ccccc3)c2c1` [compound 902491] returned an inhibition at 20 µM of 42.1%. The half-inhibitory concentration (IC50) in the data set on VEEV TC-83 [2] is 9.71 µM; with VEEV TC-83 [3] (setting [19]), 3.45 µM; with VEEV V3526 (read-out: IC50 against V3526), 6.12 µM. The CC50 in the data set “in vitro [12]” is above 25 µM.

Compound `O=c1nc(Nc2ccc(OCc3ccccc3)cc2)sc2ncccc12` [compound 1258664] displayed an inhibition at 20 µM in the data set with VEEV TC-83 [1] of 63.2%. The figures for the IC50 in the data set with VEEV TC-83 [2], with VEEV TC-83 [3] (setting [19]) and with VEEV V3526 (read-out: IC50 against V3526) were 2.86 µM, 2.38 µM and 3.67 µM, respectively. This compound registered a CC50 in the data set “in vitro [12]” above 25 µM.

`CCOC(=O)c1ccc(Nc2nc(=O)c3cccnc3s2)cc1` [compound 1259240] displayed an inhibition at 20 µM with VEEV TC-83 [1] of 49%. Besides, the IC50 with VEEV TC-83 [2] was determined as 6.32 µM; in the data set with VEEV TC-83 [3] (setting [19]) it was 7.07 µM; with VEEV V3526 (read-out: IC50 against V3526), 10.8 µM. For the same compound, in the data set “in vitro [12]”, the CC50 is above 25 µM.

In the case of `O=C(Oc1ccc2ccccc2c1Br)N1CCCCCC1` [compound 2928803], in the data set with VEEV TC-83 [1], 20 µM produced 42.8% inhibition. The values for the IC50 in the data set with VEEV TC-83 [2], in the data set with VEEV TC-83 [3] (setting [19]) and in the data set on VEEV V3526 (read-out: IC50 against V3526) were 4.26 µM, above 50 µM and above 50 µM, respectively. For the same compound, the CC50 in the data set “in vitro [12]” is above 25 µM.

For the compound (−)-carbodine, in the data set on VEEV TC-83 [18], the Survival is reported as 50%.

By inhibition is commonly meant the percentage by which the read-out fell short of the control. Broadly, the IC50 is the concentration at which inhibition is half-maximal. The Aqueous solubility is the concentration that dissolves in the medium under given conditions. One may read the solubility as how much of the substance goes into solution per volume. The term half-life denotes the time in which the quantity being followed falls by half. As a reminder, the microsomal CLint is the capacity of the preparation to metabolise the compound, expressed as a volume cleared per time. The term fraction unbound denotes the share of the substance not bound to proteins or other matrix. Broadly, the Papp A→B is how fast a substance crosses the layer from the apical side. In general, Papp B→A refers to how fast a substance crosses the layer from the basolateral side. As a reminder, the efflux ratio is the permeability from basolateral to apical divided by that in the opposite direction, in the common usage. As a reminder, the Papp is the rate of passage across a membrane or cell layer, normalised by area and donor concentration.
